In US20060009493A1, “Indolinone hydrazides as c-Met inhibitors” (Sugen, Inc., priority 2003, published 2006):

biological target: T1, GST fusion protein containing the Met kinase domain (Homo sapiens, UniProt P08581); assay: MET Transphosphorylation Assay (ELISA, poly(Glu,Tyr) 4:1 substrate); assay type: biochemical; conditions: met transphosphorylation of poly(glutamic acid:tyrosine 4:1) substrate; two values in a cell separated by '/'
T1 construct: Purified GST fusion protein containing the Met kinase domain, Sugen, Inc
Procedure, shortened: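 Poly(Glu-Tyr)-coated wells received the GST-Met kinase domain (10 ng/well) with compound in DMSO for 15 minutes. The reaction was started with ATP/MnCl2 in HEPES pH 7.5 buffer with vanadate, run 5 minutes, and stopped with EDTA. Phosphotyrosine was detected by anti-pTyr antibody, HRP secondary and ABTS/H2O2.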

T1 sequence (P08581 1078-1345 limits assumed): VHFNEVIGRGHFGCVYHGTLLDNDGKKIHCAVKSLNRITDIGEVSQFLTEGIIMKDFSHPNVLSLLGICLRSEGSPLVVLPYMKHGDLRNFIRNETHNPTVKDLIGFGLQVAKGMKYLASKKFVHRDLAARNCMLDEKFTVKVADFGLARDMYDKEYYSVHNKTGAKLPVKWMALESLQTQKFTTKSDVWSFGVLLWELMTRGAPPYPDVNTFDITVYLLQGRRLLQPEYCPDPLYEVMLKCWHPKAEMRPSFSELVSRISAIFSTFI

First: O=C(Cc1ccc(O)cc1)N/N=C1\C(=O)Nc2ccc([N+](=O)[O-])cc21 [II-62, (4-Hydroxy-phenyl)-acetic acid [(3Z)-5-nitro-2-oxo-1,2-dihydro-indol-3-ylidene]-hydrazide]
Second: O=C(Cc1ccc(O)cc1)N/N=C1\C(=O)Nc2ccc(C(=O)O)cc21 [Example I-10, (3Z)-3-{[2-(4-Hydroxy-phenyl)-acetyl]-hydrazono}-(3Z)-2-oxo-2,3-dihydro-1H-indole-5-carboxylic acid]
The IC50 of the first is 9.4-fold lower: 96 nM for the first, 900 nM for the second. The first is the more potent here.

Going from `O=C(Cc1ccc(O)cc1)N/N=C1\C(=O)Nc2ccc(C(=O)N3CCC(NC4CC4)CC3)c(Cl)c21` [Example I-28, (4-Hydroxy-phenyl)-acetic acid [(3Z)-4-chloro-5-(4-cyclopropylamino-piperidine-1-carbonyl)-2-oxo-1,2-dihydro-indol-3-ylidene]-hydrazide] to `O=C(Cc1ccc(F)cc1)N/N=C1\C(=O)Nc2ccc(C(=O)N3CCC(NC4CC4)CC3)c(Cl)c21` [Example I-20, (4-Fluoro-phenyl)-acetic acid [(3Z)-4-chloro-5-(4-cyclopropylamino-piperidine-1-carbonyl)-2-oxo-1,2-dihydro-indol-3-ylidene]-hydrazide], the IC50 rises from 24 nM to 430 nM (18-fold). The first is the more potent here.

First: O=C(Cc1cccc(O)c1)N/N=C1\C(=O)Nc2ccccc21 [II-30, (3-Hydroxy-phenyl)-acetic acid [(3Z)-2-oxo-1,2-dihydro-indol-3-ylidene]-hydrazide]
Second: COc1cccc(CC(=O)N/N=C2\C(=O)Nc3ccccc32)c1 [II-12, (3-Methoxy-phenyl)-acetic acid [(3Z)-2-oxo-1,2-dihydro-indol-3-ylidene]-hydrazide]
The IC50 of the first is 5-fold lower: 1450 nM for the first, 7200 nM for the second.

First: N#Cc1cc(CC(=O)N/N=C2\C(=O)Nc3ccccc32)ccc1O [II-108, (3-Cyano-4-hydroxy-phenyl)-acetic acid [(3Z)-2-oxo-1,2-dihydro-indol-3-ylidene)-hydrazide]
Second: O=C(Cc1ccc(O)c(Br)c1)N/N=C1\C(=O)Nc2ccccc21 [II-101, (3-Bromo-4-hydroxy-phenyl)-acetic acid [(3Z)-2-oxo-1,2-dihydro-indol-3-ylidene]-hydrazide]
The IC50 of the first is 220-fold higher: 11900 nM for the first, 54 nM for the second. The second is the more potent here.

First: CC(C(=O)N/N=C1\C(=O)Nc2ccc(C(=O)O)c(Cl)c21)c1ccc(F)cc1 (stereo not shown) [Example I-29, (3Z)-4-Chloro-3-{[2-(4-fluoro-phenyl)-propionyl]-hydrazono}-2-oxo-2,3-dihydro-1H-indole-5-carboxylic acid]
Second: CC(C(=O)N/N=C1\C(=O)Nc2ccc(C(=O)N3CCC(NC4CC4)CC3)c(Cl)c21)c1ccc(F)cc1 (stereo not shown) [Example I-30, 2-(4-Fluoro-phenyl)-propionic acid [(3Z)-4-chloro-5-(4-cyclopropylamino-piperidine-1-carbonyl)-2-oxo-1,2-dihydro-indol-3-ylidene]-hydrazide]
The IC50 of the first is 1.8-fold higher: 230 nM for the first, 130 nM for the second. The second is the more potent here.

Going from `COc1ccc(CC(=O)N/N=C2\C(=O)Nc3ccc(Br)cc32)cc1OC` [II-16, (3,4-Dimethoxy-phenyl)-acetic acid [(3Z)-5-bromo-2-oxo-1,2-dihydro-indol-3-ylidene)-hydrazide] to `COc1ccc2c(c1Cl)/C(=N/NC(=O)Cc1ccc(O)cc1)C(=O)N2` [II-94, (4-Hydroxy-phenyl)-acetic acid [(3Z)-4-chloro-5-methoxy-2-oxo-1,2-dihydro-indol-3-ylidene]-hydrazide], the IC50 falls from 18500 nM to 21 nM (880-fold). The second is the more potent here.

First: O=C(Cc1ccc(O)nc1)N/N=C1\C(=O)Nc2ccc(C(=O)N3CCC(NC4CC4)CC3)c(Cl)c21 [Example I-44, (6-Hydroxy-pyridin-3-yl)-acetic acid [(3Z)-4-chloro-5-(4-cyclopropylamino-piperidine-1-carbonyl)-2-oxo-1,2-dihydro-indol-3-ylidene]-hydrazide]
Second: Cn1cc(CC(=O)N/N=C2\C(=O)Nc3ccc(C(=O)N4CCC(NC5CC5)CC4)c(Cl)c32)ccc1=O [Example I-35, (1-Methyl-6-oxo-1,6-dihydro-pyridin-3-yl)-acetic acid [(3Z)-4-chloro-5-(4-cyclopropylamino-piperidine-1-carbonyl)-2-oxo-1,2-dihydro-indol-3-ylidene]-hydrazide]
The IC50 of the first is 2.2-fold lower: 570 nM for the first, 1230 nM for the second.

Compared with `COC(=O)c1cccc2c1/C(=N/NC(=O)Cc1ccc(O)cc1)C(=O)N2` [Example I-56, (3Z)-3-{[2-(4-Hydroxy-phenyl)-acetyl]-hydrazono}-2-oxo-2,3-dihydro-1H-indole-4-carboxylic acid methyl ester], `O=C(Cc1ccc(O)cc1)N/N=C1\C(=O)Nc2ccc(Cl)c(Cl)c21` [II-33, (4-Hydroxy-phenyl)-acetic acid [(3Z)-4,5-dichloro-2-oxo-1,2-dihydro-indol-3-ylidene]-hydrazide] is 36-fold lower in IC50: 540 nM for the first, 15 nM for the second. The second is the more potent here.

First: O=C(Cc1cc[n+]([O-])cc1)N/N=C1\C(=O)Nc2ccccc21 [II-37, (1-Oxy-pyridin-4-yl)-acetic acid [(3Z)-2-oxo-1,2-dihydro-indol-3-ylidene]-hydrazide]
Second: O=C(Cc1ccc(Cl)cc1)N/N=C1\C(=O)Nc2ccccc21 [II-4, (4-Chloro-phenyl)-acetic acid [(3Z)-2-oxo-1,2-dihydro-indol-3-ylidene]-hydrazide]
The IC50 of the first is 1.8-fold higher: 10800 nM for the first, 5870 nM for the second.

Going from `O=C(Cc1cnc(=O)[nH]c1)N/N=C1\C(=O)Nc2c(Cl)ccc(Cl)c21` [II-96, (2-Oxo-1,2-dihydro-pyrimidin-5-yl)-acetic acid [(3Z)-4,7-dichloro-2-oxo-1,2-dihydro-indol-3-ylidene]-hydrazide] to `O=C(Cc1ccc(O)c(Cl)c1)N/N=C1\C(=O)Nc2c(Cl)ccc(Cl)c21` [II-54, (3-Chloro-4-hydroxy-phenyl)-acetic acid [(3Z)-4,7-dichloro-2-oxo-1,2-dihydro-indol-3-ylidene)-hydrazide], the IC50 falls from 3080 nM to under 9 nM.

Going from `Cc1ccc(C)c2c1NC(=O)/C2=N\NC(=O)Cc1ccc(O)cc1` [II-31, (4-Hydroxy-phenyl)-acetic acid [(3Z)-4,7-dimethyl-2-oxo-1,2-dihydro-indol-3-ylidene]-hydrazide] to `Cc1ccc(C)c2c1NC(=O)/C2=N\NC(=O)Cc1ccc(O)c(C#N)c1` [II-112, (3-Cyano-4-hydroxy-phenyl)-acetic acid [(3Z)-4,7-dimethyl-2-oxo-1,2-dihydro-indol-3-ylidene]-hydrazide], the IC50 rises from 15 nM to 2500 nM (170-fold). The first is the more potent here.

First: O=C(Cc1ccc2c(c1)OCO2)N/N=C1\C(=O)Nc2c(Cl)ccc(Cl)c21 [Example I-24, Benzo[1,3]dioxol-5-yl-acetic acid [(3Z)-4,7-dichloro-2-oxo-1,2-dihydro-indol-3-ylidene]-hydrazide]
Second: O=C(Cc1ccc(F)cc1)N/N=C1\C(=O)Nc2ccc(Cl)c(Cl)c21 [II-52, (4-Fluoro-phenyl)-acetic acid [(3Z)-4,5-dichloro-2-oxo-1,2-dihydro-indol-3-ylidene]-hydrazide]
The IC50 of the first is 1.9-fold lower: 110 nM for the first, 210 nM for the second.

First: COc1ccc(CC(=O)N/N=C2\C(=O)Nc3c(C)ccc(C)c32)cc1C#N [II-107, (3-Cyano-4-methoxy-phenyl)-acetic acid [(3Z)-4,7-dimethyl-2-oxo-1,2-dihydro-indol-3-ylidene]-hydrazide]
Second: O=C(Cc1ccc(O)cc1)N/N=C1\C(=O)Nc2c(Cl)cccc21 [II-36, (4-Hydroxy-phenyl)-acetic acid [(3Z)-7-chloro-2-oxo-1,2-dihydro-indol-3-ylidene]-hydrazide]
The IC50 of the first is higher: over 20000 nM for the first, 22 nM for the second. The second is the more potent here.

Compared with `O=C(Cc1cc(=O)[nH]cn1)N/N=C1\C(=O)Nc2ccccc21` [II-88, (6-Oxo-1,6-dihydro-pyrimidin-4-yl)-acetic acid [(3Z)-2-oxo-1,2-dihydro-indol-3-ylidene]-hydrazide], `O=C(Cc1ccc(F)cc1)N/N=C1\C(=O)Nc2ccccc21` [II-27, (4-Fluoro-phenyl)-acetic acid [(3Z)-2-oxo-1,2-dihydro-indol-3-ylidene]-hydrazide] is 2.8-fold lower in IC50: 5990 nM for the first, 2150 nM for the second. The second is the more potent here.

`CCOc1ccc(CC(=O)N/N=C2\C(=O)Nc3ccccc32)cc1` [II-10, (4-Ethoxy-phenyl)-acetic acid [(3Z)-2-oxo-1,2-dihydro-indol-3-ylidene]-hydrazide] and `CSc1ccc(CC(=O)N/N=C2\C(=O)Nc3ccccc32)cc1` [Example I-19, (4-Methylsulfanyl-phenyl)-acetic acid [(3Z]-2-oxo-1,2-dihydro-indol-3-ylidene]-hydrazide] cannot be ordered by IC50: over 20000 nM for the first, over 20000 nM for the second.

Compared with `CC(C(=O)N/N=C1\C(=O)Nc2ccc(S(=O)(=O)NCCN3CCOCC3)cc21)c1ccc(O)cc1` (stereo not shown) [Example I-27, (3Z)-3-{[2-(4-Hydroxy-phenyl)-propionyl]-hydrazono}-2-oxo-2,3-dihydro-1H-indole-5-sulfonic acid (2-morpholin-4-yl-ethyl)-amide], `CC(C(=O)N/N=C1\C(=O)Nc2c(Cl)ccc(Cl)c21)c1ccc(O)cc1` (stereo not shown) [II-77, 2-(4-Hydroxy-phenyl)-propionic acid [(3Z)-4,7-dichloro-2-oxo-1,2-dihydro-indol-3-ylidene]-hydrazide] is 26-fold lower in IC50: 390 nM for the first, 15 nM for the second. The second is the more potent here.

Compared with `O=C(Cc1ccc(O)cc1)N/N=C1\C(=O)Nc2ccc(S(=O)(=O)Cc3c(Cl)cccc3Cl)cc21` [Example I-8, (4-Hydroxy-phenyl)-acetic acid [(3Z)-5-(2,6-dichloro-phenylmethanesulfonyl)-2-oxo-1,2-dihydro-indol-3-ylidene]-hydrazide], `O=C(Cc1ccccc1Cl)N/N=C1\C(=O)Nc2ccccc21` [II-13, (2-Chloro-phenyl)-acetic acid [(3Z)-2-oxo-1,2-dihydro-indol-3-ylidene]-hydrazide] is higher in IC50: 7 nM for the first, over 20000 nM for the second.

Going from `CCC(C(=O)N/N=C1\C(=O)Nc2c(Cl)ccc(Cl)c21)c1ccc(OC)cc1` (stereo not shown) [II-79, 2-(4-Methoxy-phenyl)-butyric acid [(3Z)-4,7-dichloro-2-oxo-1,2-dihydro-indol-3-ylidene)-hydrazide] to `COc1ccc(C(C)C(=O)N/N=C2\C(=O)Nc3ccccc32)cc1` (stereo not shown) [II-17], the IC50 rises from 150 nM to 230 nM (1.5-fold).

`Cc1cc(CCN2CCCC2)c(C)c2c1NC(=O)/C2=N\NC(=O)C(C)c1ccc(F)cc1` (stereo not shown) [Example I-62, 2-(4-Fluoro-phenyl)-propionic acid [(3Z)-4,7-dimethyl-2-oxo-5-(2-pyrrolidin-1-yl-ethyl)-1,2-dihydro-indol-3-ylidene]-hydrazide] was tested, and the IC50 was 980 nM.
